# Experimental data as given in patent publication US11992497B2 (priority 2021, dated 2024).
# Tests used:
# Experiment in all cases: UGT reaction phenotyping, recombinant Supersomes
# Details in all cases: recombinant enzyme, pH 7.4
# [1] = target: T1, UGT1A3 (Homo sapiens, UniProt P35503)
# T1 sequence (P35503 29-534): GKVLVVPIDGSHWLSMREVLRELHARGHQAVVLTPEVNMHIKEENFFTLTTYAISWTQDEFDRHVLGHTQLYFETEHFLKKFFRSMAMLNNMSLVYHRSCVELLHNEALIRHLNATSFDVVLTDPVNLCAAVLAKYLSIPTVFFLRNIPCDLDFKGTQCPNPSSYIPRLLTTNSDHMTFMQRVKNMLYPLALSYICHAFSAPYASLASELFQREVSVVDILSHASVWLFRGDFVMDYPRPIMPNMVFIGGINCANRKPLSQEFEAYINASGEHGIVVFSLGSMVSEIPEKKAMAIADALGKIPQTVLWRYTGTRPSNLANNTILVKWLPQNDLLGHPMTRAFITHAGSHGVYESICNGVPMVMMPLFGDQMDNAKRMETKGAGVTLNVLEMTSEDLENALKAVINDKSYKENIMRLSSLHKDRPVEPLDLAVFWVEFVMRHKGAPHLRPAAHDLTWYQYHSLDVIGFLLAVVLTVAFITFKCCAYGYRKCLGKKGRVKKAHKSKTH
# Procedure: (§1) Experimental Summary: UGT Reaction Phenotyping (7 Isoforms).
# (§2) Experimental Procedure: cDNA expressed human UGT enzyme preparations (Supersomes) supplied by BD Biosciences were obtained and stored at −80° C. prior to use. The specific isoforms were chosen by the performing laboratory based on published guidelines. They are considered the clinically relevant of the UGT isoforms (E. Kasteel et al. Human variability in isoform-specific UDP-glucuronosyltransferases: markers of acute and chronic exposure, polymorphisms and uncertainty factors. Arch Toxicol. 2020; 94(8): 2637-2661)
# (§3) Supersomes in 0.1 M Tris buffer pH 7.4, alamethicin (44.6 μg/mL) and test compound (final concentration of 5 μM; final DMSO concentration ≤0.1%) were pre-incubated at 37° C. prior to the addition of UDGPA (final concentration 2 mM) to initiate the reaction. Incubations were also performed using control Supersomes (no UGT enzymes present) to reveal any non-enzymatic degradation. Compounds known to be metabolized specifically by each UGT isoform were used as control compounds (7-hydroxy-4-trifluoromethylcoumarin, all but UGT1A4, or trifluoperazine for UGT1A4).
# (§4) CBG or Compound 1 were incubated in duplicate for 0, 10, 20, 40 and 60 min with each isoform. The reactions were stopped by the addition of methanol containing an analytical internal standard at the time points specified in the table above. Stopped reactions were kept on ice for at least ten minutes and the samples were centrifuged to remove precipitated protein. Supernatants were analyzed by LC-MS/MS methodology developed by the performing laboratory to quantitate the parent remaining.
# (§5) The change in CBG concentration were used to calculate the Half life (t1/2 in min) and the intrinsic clearance ([…]) as shown in the following table (S. C, Khojasteh et.al., Drug Metabolism and Pharmacokinetics Quick Guide, Springer, NY, 2011), Intrinsic Clearance (CIint) is a measure of the ability of hepatocytes to eliminate drug irrespective other factors such as blood flow or protein binding. The calculations were the same as those used in Example 3A.
# [2] = target: T2, UGT1A6 (Homo sapiens, UniProt P19224)
# T2 sequence (P19224 27-532): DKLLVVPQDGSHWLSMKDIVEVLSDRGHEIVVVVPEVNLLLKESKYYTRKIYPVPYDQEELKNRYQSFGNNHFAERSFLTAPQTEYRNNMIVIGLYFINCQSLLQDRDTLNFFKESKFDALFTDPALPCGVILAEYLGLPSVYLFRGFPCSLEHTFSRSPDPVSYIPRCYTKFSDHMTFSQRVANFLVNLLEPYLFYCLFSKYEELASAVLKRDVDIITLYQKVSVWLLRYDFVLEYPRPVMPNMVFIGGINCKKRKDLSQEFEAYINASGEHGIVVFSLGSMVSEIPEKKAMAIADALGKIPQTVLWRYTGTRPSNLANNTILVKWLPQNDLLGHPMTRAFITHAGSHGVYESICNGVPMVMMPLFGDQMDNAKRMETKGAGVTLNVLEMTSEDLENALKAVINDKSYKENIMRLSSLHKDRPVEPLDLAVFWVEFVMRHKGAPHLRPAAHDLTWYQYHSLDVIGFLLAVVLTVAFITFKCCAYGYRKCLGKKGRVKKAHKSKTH
# Procedure: as §1, §2, §3, §4, §5
# [3] = target: T3, UGT2B15 (Homo sapiens, UniProt P54855)
# T3 sequence (P54855 24-530): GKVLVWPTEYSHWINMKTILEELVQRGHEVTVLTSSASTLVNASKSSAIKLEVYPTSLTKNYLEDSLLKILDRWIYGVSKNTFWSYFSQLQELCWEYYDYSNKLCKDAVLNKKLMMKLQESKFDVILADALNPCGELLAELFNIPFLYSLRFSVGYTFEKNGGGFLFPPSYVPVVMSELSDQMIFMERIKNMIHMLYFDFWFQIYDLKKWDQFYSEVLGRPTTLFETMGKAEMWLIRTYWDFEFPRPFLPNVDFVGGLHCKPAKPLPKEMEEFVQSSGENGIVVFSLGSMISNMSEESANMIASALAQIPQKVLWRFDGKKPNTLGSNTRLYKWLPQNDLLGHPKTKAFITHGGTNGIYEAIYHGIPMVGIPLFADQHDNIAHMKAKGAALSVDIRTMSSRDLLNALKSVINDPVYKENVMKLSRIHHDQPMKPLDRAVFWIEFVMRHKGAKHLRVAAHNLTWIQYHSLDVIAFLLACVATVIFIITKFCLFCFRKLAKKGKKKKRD
# Procedure: as §1, §2, §3, §4, §5
Compound,half-life at 1 µM [1] [min],microsomal CLint at 1 µM [1] [µL/min/mg],half-life at 1 µM [2] [min],microsomal CLint at 1 µM [2] [µL/min/mg],half-life at 1 µM [3] [min],microsomal CLint at 1 µM [3] [µL/min/mg]
"CCCCCc1cc(O)c(C/C=C(\C)CCC=C(C)C)c(OC)c1 [Compound 1, (E)-2-(3,7-dimethylocta-2,6-dien-1-yl)-3-methoxy-5-pentylphenol]",108,12.8,> 240,< 2.89,57.2,24.2
"O=c1cc(C(F)(F)F)c2ccc(O)cc2o1 [7-OH4trifluoromethylcoumarin, 7-hydroxy-4-trifluoromethylcoumarin]",51.8,26.8,6.41,216,24.9,55.8
"CCCCCc1cc(O)c(C/C=C(\C)CCC=C(C)C)c(O)c1 [CBG, cannabigerol]",44.1,31.4,95,14.6,47.6,29.1
